Experimental data as given in US20010003744A1, “Therapeutic compounds” (priority 1994, published 2001).

Experiments:
[1] = system: HCMV strain AD169; test: Human Cytomegalovirus (HCMV) assay, HCMV DNA hybridization; assay type: cell-based; conditions: HCMV strain AD169 on MRC5 cells, 5 days, HCMV DNA by blotting and hybridization
Procedure: (§1) HCMV strain AD169 was grown on monolayers of human embryonic lung cells (MRC5 cells) in 96 well plates. After infection of the cells at a ratio of approximately 0.01 infectious virus particles per cell, the compounds to be tested were added to selected wells at six different concentrations, each in triplicate. The same concentrations of compound were also applied to wells containing monolayers of uninfected cells in order to assess compound cytotoxicity. The plates were incubated for 5 days, and the minimum cytotoxic dose was estimated from microscopic examination. The IC50 for antiviral effect was estimated from measurements of HCMV DNA in each well by blotting and quantitive specific DNA hybridization, similar to the method of Gadler. (Antimicrob. Agents Chemother. 1983, 24, 370-374).

[2] = Compound cytotoxicity on uninfected MRC5 monolayers, microscopic examination; assay type: cell-based, human; conditions: human, uninfected MRC5 cell monolayers (human embryonic lung cells); uninfected MRC5 cells, 5 days, estimated from microscopic examination; read-out: MRC5 tox CC50
Procedure: as §1

[3] = system: MRC5 cells; test: as above; assay type: cell-based, human
Procedure: as §1

| Compound | melting point | also measured |
| --- | --- | --- |
| CC(=O)OC[C@@H]1O[C@H](n2c(Br)nc3cc(Cl)c(Cl)cc32)[C@@H](OC(C)=O)[C@H]1OC(C)=O [Example 1, 2-Bromo-5,6-dichloro-1-(2,3,5-tri-O-acetyl-beta-L-ribofuranosyl)-1H-benzimidazole] | < 65 °C | – |
| OC[C@@H]1O[C@H](n2c(Br)nc3cc(Cl)c(Cl)cc32)[C@@H](O)[C@H]1O [Example 2, 2-Bromo-5,6-dichloro-1-(beta-L-ribofuranosyl)-1H-benzimidazole] | 169 °C | – |
| C=CCNc1nc2cc(Cl)c(Cl)cc2n1[C@H]1O[C@@H](CO)[C@H](O)[C@@H]1O [Example 4, 2-(Allylamino)-5,6-dichloro-1-(beta-L-ribofuranosyl)-1H-benzimidazole] | 220 °C (dec.) | IC50 ([1]; Human betaherpesvirus 5, 120 h): 910 to 2500 nM; CC50 at 5 days [2]: 100 µM |
| CC(C)Nc1nc2cc(Cl)c(Cl)cc2n1[C@H]1O[C@@H](CO)[C@H](O)[C@@H]1O [Example 5, 5,6-Dichloro-2-(isopropylamino)-1-(beta-L-ribofuranosyl)-1H-benzimidazole] | – | IC50 ([1]; Human betaherpesvirus 5, 120 h): 30 to 50 nM; CC50 at 5 days [2]: 100 µM |
| OC[C@@H]1O[C@H](n2c(NC3CCCC3)nc3cc(Cl)c(Cl)cc32)[C@@H](O)[C@H]1O [Example 6, 2-(Cyclopentylamino)-5,6-dichloro-1-(beta-L-ribofuranosyl)-1H-benzimidazole] | 140 °C | – |
| OC[C@@H]1O[C@H](n2c(NCc3ccccc3)nc3cc(Cl)c(Cl)cc32)[C@@H](O)[C@H]1O [Example 7, 2-(Benzylamino)-5,6-dichloro-1-(beta-L-ribofuranosyl)-1H-benzimidazole] | 123 °C | – |
| OC[C@@H]1O[C@H](n2c(N3CCC3)nc3cc(Cl)c(Cl)cc32)[C@@H](O)[C@H]1O [Example 8, 2-Azetidino-5,6-dichloro-1-(beta-L-ribofuranosyl)-1H-benzimidazole] | – | IC50 [1]: 41000 nM; CC50 [3]: 100 µM |
| C#CCNc1nc2cc(Cl)c(Cl)cc2n1[C@H]1O[C@@H](CO)[C@H](O)[C@@H]1O [Example 9, 5,6-Dichloro-2-(propargylamino)-1-(beta-L-ribofuranosyl)-1H-benzimidazole] | 182 to 184 °C | – |
| CCCNc1nc2cc(Cl)c(Cl)cc2n1[C@H]1O[C@@H](CO)[C@H](O)[C@@H]1O [Example 10, 5,6-Dichloro-2-(n-propylamino)-1-(beta-L-ribofuranosyl)-1H-benzimidazole] | 231 to 233 °C | IC50 ([1]; Human betaherpesvirus 5, 120 h): 1100 to 1300 nM; CC50 at 5 days [2]: 100 µM |
| CC(C)CNc1nc2cc(Cl)c(Cl)cc2n1[C@H]1O[C@@H](CO)[C@H](O)[C@@H]1O [Example 11, 5,6-Dichloro-2-(isobutylamino)-1-(beta-L-ribofuranosyl)-1H-benzimidazole] | 136 °C | – |
| OCCNc1nc2cc(Cl)c(Cl)cc2n1[C@H]1O[C@@H](CO)[C@H](O)[C@@H]1O [Example 12, 2-((5,6-Dichloro-1-(beta-L-ribofuranosyl)-1H-benzimidazol-2-yl)amino)ethanol] | – | IC50 ([1]; Human betaherpesvirus 5, 120 h): 3500 to 5800 nM; CC50 at 5 days [2]: 100 µM |
| CCCCNc1nc2cc(Cl)c(Cl)cc2n1[C@H]1O[C@@H](CO)[C@H](O)[C@@H]1O [Example 18, 2-(n-Butylamino)-5,6-dichloro-1-(beta-L-ribofuranosyl)-1H-benzimidazole] | 220 to 222 °C | – |
| CCC(C)Nc1nc2cc(Cl)c(Cl)cc2n1[C@H]1O[C@@H](CO)[C@H](O)[C@@H]1O (stereo partly drawn) [Example 19, 2-(sec-Butylamino)-5,6-dichloro-1-(beta-L-ribofuranosyl)-1H-benzimidazole] | 121 to 122 °C | – |
| OC[C@@H]1O[C@H](n2c(NC3CCC3)nc3cc(Cl)c(Cl)cc32)[C@@H](O)[C@H]1O [Example 20, 2-(Cyclobutylamino)-5,6-dichloro-1-(beta-L-ribofuranosyl)-1H-benzimidazole] | 220 to 221 °C | – |
| OC[C@@H]1O[C@H](n2c(NCCN3CCCC3)nc3cc(Cl)c(Cl)cc32)[C@@H](O)[C@H]1O [Example 22, 5,6-Dichloro-2-((2-(1-pyrrolidinyl)ethyl)amino)-1-(beta-L-ribofuranosyl)-1H-benzimidazole] | 123 to 124 °C | – |
| OC[C@@H]1O[C@H](n2c(NCC3CC3)nc3cc(Cl)c(Cl)cc32)[C@@H](O)[C@H]1O [Example 23, 2-((Cyclopropylmethyl)amino)-5,6-dichloro-1-(beta-L-ribofuranosyl)-1H-benzimidazole] | 229 to 230 °C | – |
| CC(C)(C)Nc1nc2cc(Cl)c(Cl)cc2n1[C@H]1O[C@@H](CO)[C@H](O)[C@@H]1O [Example 24, 2-(tert-Butylamino)-5,6-dichloro-1-(beta-L-ribofuranosyl)-1H-benzimidazole] | 118 to 120 °C | – |
| CC(C)(C)Nc1nc2cc(Cl)c(Cl)cc2[nH]1 [Example 26, 2-(tert-Butylamino)-5,6-dichloro-1H-benzimidazole] | 219 to 221 °C | – |
| Nc1nc2cc(Cl)c(Cl)cc2n1[C@H]1O[C@@H](CO)[C@H](O)[C@@H]1O [Example 27, 2-Amino-5,6-dichloro-1-(beta-L-ribofuranosyl)-1H-benzimidazole] | 110 to 112 °C | – |
| CNc1nc2cc(Cl)c(Cl)cc2n1[C@H]1O[C@@H](CO)[C@H](O)[C@@H]1O [Example 33, 5,6-Dichloro-2-(methylamino)-1-(beta-L-ribofuranosyl)-1H-benzimidazole] | 238 to 240 °C | – |
| CCNc1nc2cc(Cl)c(Cl)cc2n1[C@H]1O[C@@H](CO)[C@H](O)[C@@H]1O [Example 34, 5,6-Dichloro-2-(ethylamino)-1-(beta-L-ribofuranosyl)-1H-benzimidazole] | 155 to 157 °C | IC50 ([1]; Human betaherpesvirus 5, 120 h): 750 to 850 nM; CC50 at 5 days [2]: 100 µM |
| OC[C@@H]1O[C@@H](n2c(NC3CC3)nc3cc(Cl)c(Cl)cc32)[C@@H](O)[C@H]1O [Example 35, 2-Cyclopropylamino-5,6-dichloro-1-(alpha-L-ribofuranosyl)-1H-benzimidazole] | 140 to 141 °C | – |
